Assay results taken from patent US8680012B2, “4-phenyl-pyrane-3,5-diones,4-phenyl-thiopyrane-3,6-diones and cyclohexanetriones as novel herbicides” (Syngenta Crop Protection LLC, priority 2006, dated 2014).

Test system: Alopecurus myosuroides (ALOMY)
Assay: Example A pre-emergence herbicidal activity, glasshouse pot test
Assay type: in vivo
Details: 480 h, rate 250 g/ha, evaluated 20 days after spraying, read-out: Pre-emergence activity ALOMY (100=total damage to plant; 0=no damage to plant)
Experimental: (§1) Seeds of a variety of test species were sown in standard soil in pots. After cultivation for one day (pre-emergence) or after 10 days cultivation (post-emergence) under controlled conditions in a glasshouse, the plants were sprayed with an aqueous spray solution derived from the formulation of the technical active ingredient in 0.6 ml acetone and 45 ml formulation solution containing 10.6% Emulsogen EL (Registry number 61791-12-6), 42.2% N-methylpyrrolidone, 42.2% dipropylene glycol monomethyl ether (Registry number 34590-94-8) and 0.2% X-77 (Registry number 11097-66-8). The test plants were then grown in a greenhouse under optimum conditions until, 15 days later for post-emergence and 20 days for pre-emergence, the test was evaluated (100=total damage to plant; 0=no damage to plant).
(§2) Alopecurus myosuroides (ALOMY), Avena fatua (AVEFA), Lolium perenne (LOLPE), Setaria faberi (SETFA), Digitaria sanguinalis (DIGSA), Echinochloa crus-galli (ECHCG)

Row | Compound | pest or weed control at 250 g/ha [%]
1 | CCc1ccc(-c2ccc(F)cc2)cc1C1=C(O)[C@@]2(C)CC[C@H](O2)C1=O [Compound A-38] | 50
2 | CCc1ccc(-c2ccc(Cl)cc2)cc1C1=C(O)C(C)(C)[S+]([O-])C(C)(C)C1=O (stereo not shown) [Compound C-2] | 10
3 | CCc1ccc(-c2ccc(Cl)cc2)cc1C1=C(O)C(C)(C)S(=O)(=O)C(C)(C)C1=O [Compound C-3] | 60

Same assay, conditions: 480 h, rate 500 g/ha, evaluated 20 days after spraying, read-out: Pre-emergence activity ALOMY (100=total damage to plant; 0=no damage to plant)

Row | Compound | pest or weed control at 500 g/ha [%]
4 | CCc1ccc(-c2ccc(Cl)cc2)cc1C1=C(O)C(C)(C)C(=O)C(C)(C)C1=O [Compound B-1] | 40

Test system: Avena fatua (AVEFA)
Assay: as above
Assay type: in vivo
Details: 480 h, rate 250 g/ha, evaluated 20 days after spraying, read-out: Pre-emergence activity AVEFA (100=total damage to plant; 0=no damage to plant)
Experimental: as §1, §2

Row | Compound | pest or weed control at 250 g/ha [%]
5 | CCc1ccc(-c2ccc(F)cc2)cc1C1=C(O)[C@@]2(C)CC[C@H](O2)C1=O [Compound A-38] | 10
6 | CCc1ccc(-c2ccc(Cl)cc2)cc1C1=C(O)C(C)(C)[S+]([O-])C(C)(C)C1=O (stereo not shown) [Compound C-2] | 10
7 | CCc1ccc(-c2ccc(Cl)cc2)cc1C1=C(O)C(C)(C)S(=O)(=O)C(C)(C)C1=O [Compound C-3] | 80

Same assay, conditions: 480 h, rate 500 g/ha, evaluated 20 days after spraying, read-out: Pre-emergence activity AVEFA (100=total damage to plant; 0=no damage to plant)

Row | Compound | pest or weed control at 500 g/ha [%]
8 | CCc1ccc(-c2ccc(Cl)cc2)cc1C1=C(O)C(C)(C)C(=O)C(C)(C)C1=O [Compound B-1] | 60

Test system: Digitaria sanguinalis (DIGSA)
Assay: as above
Assay type: in vivo
Details: 480 h, rate 250 g/ha, evaluated 20 days after spraying, read-out: Pre-emergence activity DIGSA (100=total damage to plant; 0=no damage to plant)
Experimental: as §1, §2

Row | Compound | pest or weed control at 250 g/ha [%]
9 | CCc1ccc(-c2ccc(F)cc2)cc1C1=C(O)[C@@]2(C)CC[C@H](O2)C1=O [Compound A-38] | 30
10 | CCc1ccc(-c2ccc(Cl)cc2)cc1C1=C(O)C(C)(C)[S+]([O-])C(C)(C)C1=O (stereo not shown) [Compound C-2] | 100
11 | CCc1ccc(-c2ccc(Cl)cc2)cc1C1=C(O)C(C)(C)S(=O)(=O)C(C)(C)C1=O [Compound C-3] | 90

Same assay, conditions: 480 h, rate 500 g/ha, evaluated 20 days after spraying, read-out: Pre-emergence activity DIGSA (100=total damage to plant; 0=no damage to plant)

Row | Compound | pest or weed control at 500 g/ha [%]
12 | CCc1ccc(-c2ccc(Cl)cc2)cc1C1=C(O)C(C)(C)C(=O)C(C)(C)C1=O [Compound B-1] | 100

Test system: Echinochloa crus-galli (ECHCG)
Assay: as above
Assay type: in vivo
Details: 480 h, rate 250 g/ha, evaluated 20 days after spraying, read-out: Pre-emergence activity ECHCG (100=total damage to plant; 0=no damage to plant)
Experimental: as §1, §2

Row | Compound | pest or weed control at 250 g/ha [%]
13 | CCc1ccc(-c2ccc(F)cc2)cc1C1=C(O)[C@@]2(C)CC[C@H](O2)C1=O [Compound A-38] | 70
14 | CCc1ccc(-c2ccc(Cl)cc2)cc1C1=C(O)C(C)(C)[S+]([O-])C(C)(C)C1=O (stereo not shown) [Compound C-2] | 100
15 | CCc1ccc(-c2ccc(Cl)cc2)cc1C1=C(O)C(C)(C)S(=O)(=O)C(C)(C)C1=O [Compound C-3] | 70

Same assay, conditions: 480 h, rate 500 g/ha, evaluated 20 days after spraying, read-out: Pre-emergence activity ECHCG (100=total damage to plant; 0=no damage to plant)

Row | Compound | pest or weed control at 500 g/ha [%]
16 | CCc1ccc(-c2ccc(Cl)cc2)cc1C1=C(O)C(C)(C)C(=O)C(C)(C)C1=O [Compound B-1] | 100

Test system: Lolium perenne (LOLPE)
Assay: as above
Assay type: in vivo
Details: 480 h, rate 250 g/ha, evaluated 20 days after spraying, read-out: Pre-emergence activity LOLPE (100=total damage to plant; 0=no damage to plant)
Experimental: as §1, §2

Row | Compound | pest or weed control at 250 g/ha [%]
17 | CCc1ccc(-c2ccc(F)cc2)cc1C1=C(O)[C@@]2(C)CC[C@H](O2)C1=O [Compound A-38] | 60
18 | CCc1ccc(-c2ccc(Cl)cc2)cc1C1=C(O)C(C)(C)[S+]([O-])C(C)(C)C1=O (stereo not shown) [Compound C-2] | 10
19 | CCc1ccc(-c2ccc(Cl)cc2)cc1C1=C(O)C(C)(C)S(=O)(=O)C(C)(C)C1=O [Compound C-3] | 10

Same assay, conditions: 480 h, rate 500 g/ha, evaluated 20 days after spraying, read-out: Pre-emergence activity LOLPE (100=total damage to plant; 0=no damage to plant)

Row | Compound | pest or weed control at 500 g/ha [%]
20 | CCc1ccc(-c2ccc(Cl)cc2)cc1C1=C(O)C(C)(C)C(=O)C(C)(C)C1=O [Compound B-1] | 60

Test system: Setaria faberi (SETFA)
Assay: as above
Assay type: in vivo
Details: 480 h, rate 250 g/ha, evaluated 20 days after spraying, read-out: Pre-emergence activity SETFA (100=total damage to plant; 0=no damage to plant)
Experimental: as §1, §2

Row | Compound | pest or weed control at 250 g/ha [%]
21 | CCc1ccc(-c2ccc(F)cc2)cc1C1=C(O)[C@@]2(C)CC[C@H](O2)C1=O [Compound A-38] | 90
22 | CCc1ccc(-c2ccc(Cl)cc2)cc1C1=C(O)C(C)(C)[S+]([O-])C(C)(C)C1=O (stereo not shown) [Compound C-2] | 70
23 | CCc1ccc(-c2ccc(Cl)cc2)cc1C1=C(O)C(C)(C)S(=O)(=O)C(C)(C)C1=O [Compound C-3] | 60

Same assay, conditions: 480 h, rate 500 g/ha, evaluated 20 days after spraying, read-out: Pre-emergence activity SETFA (100=total damage to plant; 0=no damage to plant)

Row | Compound | pest or weed control at 500 g/ha [%]
24 | CCc1ccc(-c2ccc(Cl)cc2)cc1C1=C(O)C(C)(C)C(=O)C(C)(C)C1=O [Compound B-1] | 100

Test system: Alopecurus myosuroides (ALOMY)
Assay: Example A post-emergence herbicidal activity, glasshouse pot test
Assay type: in vivo
Details: 360 h, rate 125 g/ha, evaluated 15 days after spraying, read-out: Post-emergence activity ALOMY (100=total damage to plant; 0=no damage to plant)
Experimental: as §1, §2

Row | Compound | pest or weed control at 125 g/ha [%]
25 | CCc1ccc(-c2ccc(F)cc2)cc1C1=C(O)[C@@]2(C)CC[C@H](O2)C1=O [Compound A-38] | 50
26 | CCc1ccc(-c2ccc(Cl)cc2)cc1C1=C(O)C(C)(C)C(=O)C(C)(C)C1=O [Compound B-1] | 30
27 | CCc1ccc(-c2ccc(Cl)cc2)cc1C1=C(O)C(C)(C)[S+]([O-])C(C)(C)C1=O (stereo not shown) [Compound C-2] | 70
28 | CCc1ccc(-c2ccc(Cl)cc2)cc1C1=C(O)C(C)(C)S(=O)(=O)C(C)(C)C1=O [Compound C-3] | 70

Test system: Avena fatua (AVEFA)
Assay: as above
Assay type: in vivo
Details: 360 h, rate 125 g/ha, evaluated 15 days after spraying, read-out: Post-emergence activity AVEFA (100=total damage to plant; 0=no damage to plant)
Experimental: as §1, §2

Row | Compound | pest or weed control at 125 g/ha [%]
29 | CCc1ccc(-c2ccc(F)cc2)cc1C1=C(O)[C@@]2(C)CC[C@H](O2)C1=O [Compound A-38] | 60
30 | CCc1ccc(-c2ccc(Cl)cc2)cc1C1=C(O)C(C)(C)C(=O)C(C)(C)C1=O [Compound B-1] | 30
31 | CCc1ccc(-c2ccc(Cl)cc2)cc1C1=C(O)C(C)(C)[S+]([O-])C(C)(C)C1=O (stereo not shown) [Compound C-2] | 70
32 | CCc1ccc(-c2ccc(Cl)cc2)cc1C1=C(O)C(C)(C)S(=O)(=O)C(C)(C)C1=O [Compound C-3] | 80

Test system: Digitaria sanguinalis (DIGSA)
Assay: as above
Assay type: in vivo
Details: 360 h, rate 125 g/ha, evaluated 15 days after spraying, read-out: Post-emergence activity DIGSA (100=total damage to plant; 0=no damage to plant)
Experimental: as §1, §2

Row | Compound | pest or weed control at 125 g/ha [%]
33 | CCc1ccc(-c2ccc(F)cc2)cc1C1=C(O)[C@@]2(C)CC[C@H](O2)C1=O [Compound A-38] | 70
34 | CCc1ccc(-c2ccc(Cl)cc2)cc1C1=C(O)C(C)(C)C(=O)C(C)(C)C1=O [Compound B-1] | 100
35 | CCc1ccc(-c2ccc(Cl)cc2)cc1C1=C(O)C(C)(C)[S+]([O-])C(C)(C)C1=O (stereo not shown) [Compound C-2] | 90
36 | CCc1ccc(-c2ccc(Cl)cc2)cc1C1=C(O)C(C)(C)S(=O)(=O)C(C)(C)C1=O [Compound C-3] | 100

Test system: Echinochloa crus-galli (ECHCG)
Assay: as above
Assay type: in vivo
Details: 360 h, rate 125 g/ha, evaluated 15 days after spraying, read-out: Post-emergence activity ECHCG (100=total damage to plant; 0=no damage to plant)
Experimental: as §1, §2

Row | Compound | pest or weed control at 125 g/ha [%]
37 | CCc1ccc(-c2ccc(F)cc2)cc1C1=C(O)[C@@]2(C)CC[C@H](O2)C1=O [Compound A-38] | 90
38 | CCc1ccc(-c2ccc(Cl)cc2)cc1C1=C(O)C(C)(C)C(=O)C(C)(C)C1=O [Compound B-1] | 100
39 | CCc1ccc(-c2ccc(Cl)cc2)cc1C1=C(O)C(C)(C)[S+]([O-])C(C)(C)C1=O (stereo not shown) [Compound C-2] | 100
40 | CCc1ccc(-c2ccc(Cl)cc2)cc1C1=C(O)C(C)(C)S(=O)(=O)C(C)(C)C1=O [Compound C-3] | 100

Test system: Lolium perenne (LOLPE)
Assay: as above
Assay type: in vivo
Details: 360 h, rate 125 g/ha, evaluated 15 days after spraying, read-out: Post-emergence activity LOLPE (100=total damage to plant; 0=no damage to plant)
Experimental: as §1, §2

Row | Compound | pest or weed control at 125 g/ha [%]
41 | CCc1ccc(-c2ccc(F)cc2)cc1C1=C(O)[C@@]2(C)CC[C@H](O2)C1=O [Compound A-38] | 0
42 | CCc1ccc(-c2ccc(Cl)cc2)cc1C1=C(O)C(C)(C)C(=O)C(C)(C)C1=O [Compound B-1] | 80
43 | CCc1ccc(-c2ccc(Cl)cc2)cc1C1=C(O)C(C)(C)[S+]([O-])C(C)(C)C1=O (stereo not shown) [Compound C-2] | 60
44 | CCc1ccc(-c2ccc(Cl)cc2)cc1C1=C(O)C(C)(C)S(=O)(=O)C(C)(C)C1=O [Compound C-3] | 50

Test system: Setaria faberi (SETFA)
Assay: as above
Assay type: in vivo
Details: 360 h, rate 125 g/ha, evaluated 15 days after spraying, read-out: Post-emergence activity SETFA (100=total damage to plant; 0=no damage to plant)
Experimental: as §1, §2

Row | Compound | pest or weed control at 125 g/ha [%]
45 | CCc1ccc(-c2ccc(F)cc2)cc1C1=C(O)[C@@]2(C)CC[C@H](O2)C1=O [Compound A-38] | 80
46 | CCc1ccc(-c2ccc(Cl)cc2)cc1C1=C(O)C(C)(C)C(=O)C(C)(C)C1=O [Compound B-1] | 90
47 | CCc1ccc(-c2ccc(Cl)cc2)cc1C1=C(O)C(C)(C)[S+]([O-])C(C)(C)C1=O (stereo not shown) [Compound C-2] | 90
48 | CCc1ccc(-c2ccc(Cl)cc2)cc1C1=C(O)C(C)(C)S(=O)(=O)C(C)(C)C1=O [Compound C-3] | 90

Test system: not given
Assay: not given
Details: not given

Row | melting point [°C] | Compound
49 | 165 to 167 | CCc1ccc(-c2ccc(F)cc2)cc1C1=C(O)[C@@]2(C)CC[C@H](O2)C1=O [Compound A-38]
